Test system: neuropathy model mice
Test: Von Frey filament stimulation test in streptozotocin-induced neuropathy animal model
Format: in vivo, ICR mice
Settings: oral, 10, 20, 40 and 80 mg/kg in physiological saline; tested 1, 2, 3, 4 and 5 hours after administration; FIG. 1
Method: First, a neuropathy animal model was prepared by administering streptozocin. Specifically, streptozotocin was intraperitoneally administered to 4-week-old ICR mice at the concentration of 75 mg/kg. Five weeks after the administration, the expression of neuropathy was confirmed through the level of blood glucose and Von Frey filament stimulation tests, and the mice were used for the following experiments.
Specifically, trimethobenzamide was dissolved in physiological saline to prepare trimethobenzamide solutions with the concentrations of 10, 20, 40 and 80 mg/kg. The prepared trimethobenzamide solutions were orally administered to neuropathy model mice, and Von Frey filament stimulation test was performed 1, 2, 3, 4 and 5 hours after the administration to confirm the inhibitory effect on neuropathy.
Specifically, trimethobenzamide or tramadol was dissolved in physiological saline to prepare trimethobenzamide solution with the concentration of 60 mg/kg, or tramadol solution with the concentration of 20 mg/kg. After co-administration of the tramadol solution with the concentration of 20 mg/kg and the trimethobenzamide solution with the concentration of 20, 40 or 60 mg/kg solution, the effect of the co-administration was confirmed. […]

COc1cc(C(=O)NCc2ccc(OCCN(C)C)cc2)cc(OC)c1OC [trimethobenzamide]
inhibitory effect on neuropathy (pain), trimethobenzamide administered alone: significant effect on the inhibition of neuropathy in a concentration-dependent manner
